Consider eight compounds from EP0194571A1, “Heterocyclic disulfides, process for their preparation and pharmaceutical preparations containing them” (HOECHST AKTIENGESELLSCHAFT, priority 1985, dated 1986).

Type in all cases: in vivo, NMRI-Mäuse
Test [1] relates to Maus-Peritonealmakrophagen. Description: Activation of mononuclear phagocytes: release of lysosomal hydrolases (exocytosis) by peritoneal macrophages from treated mice. As to conditions: lysosomal enzyme activity, relative to maximal activation by compound of Beispiel 8 = 100 %; 100 mg/kg i.p. As to the method:
(§1) Hier wurde der Einfluß der nach Ausführungsbeispiel 8 erhaltenen Prüfsubstanz auf die Stimulation von Peritonealmakrophagen bei 6- 8 Wochen alten NMRI-Mäusen untersucht. Mäuseweibchen erhielten auf parenteralem oder oralem Wege die Prüfsubstanz in einer Dosis von 25 mg/kg, 50 mg/kg, 100 mg/kg und 200 mg/kg. Der Kontrollgruppe wurde gepufferte Kochsalzlösung verabreicht. Drei Tage nach den Injektionen wurden die Mäuse getötet, und es wurden die Peritonealmakrophagen der Tiere auf ihren Aktivierungszustand hin untersucht. Als Maß der Makrophagenaktivierung wurde zum einen die Sekretion der lyosomalen Enzyme (ß-Galactosidase, ß-Glucuronidase, N-Acetyl-ß-D-Glucosaminidase) bestimmt. Auf der anderen Seite konnte in vergleichbaren Makrophagenkulturen die Pinozytose durch die Aufnahme von kolloidalem Gold (^19^8Au) - wie sie dem Fachmann bekannt ist - untersucht werden. Die Höhe des oxidativen Stoffwechsels bei Makrophagen gilt als ein weiteres Maß für ihren Aktivierungszustand. Gemessen wird diese Aktivität unter Zuhilfenahme des Biolumaten durch Bestimmung der Chemolumineszenz.
(§2) Zu diesem Zweck wurden entweder in Petrischalen von 30 mm Durchmesser 3 x 10^6 Makrophagen mit 1 ml TC 199-Kulturmedium oder aber 10^6 Makrophagen mit 100 µl in Rundbogen-Polyäthylen-Röhrchen (zur Bestimmung der Chemolumineszenz) bei 5 % G02 und 37°C kultiviert.
(§3) Nach einstündiger Bebrütung wurden die Kulturen gewaschen, um schwimmende Zellen zu entfernen. Die Chemolumineszenz (Röhrchenkultur) wurde dann direkt bestimmt, während die Petrischalen erneut 24 Stunden bei 37°C bebrütet wurden und danach die Enzym- und Pinozytoseaktivität in den Kulturen bestimmt wurde. Es wurden die nachstehenden Ergebnisse erzielt.
Aus der Tabelle 3 ist zu entnehmen, daß Makrophagen von Kontrollmäusen nur geringe Mengen an lysosomalen Enzymen (ß-Glucuronidase, ß-Galactosidase, N-Acetyl-ß-D-Glucosaminidase) in den Kulturüberstand abgeben. Mononukleare Phagozyten von Mäusen, die parenteral oder oral mit der Prüfsubstanz 72 Stunden behandelt wurde, sezernieren die o.a. sauren Hydrolasen (ß-Glu, ß-Gal, N-Ac-Glu) deutlich mehr und weisen damit eine Dosiswirkungskurve auf, die bei allen gemessenen Enzymen eine Überlegenheit gegenüber den Kontrollen erkennen läßt. Es ist ersichtlich, daß die Prüfsubstanz eine stimulierende Wirkung auf die Makrophagenaktivität besitzt und zur Erhöhung der Enzymfreisetzung beiträgt.
(§4) Wie im Experiment 2 beschrieben, wurden NMRI-Mäuse mit den erfindungsgemäßen Verbindungen behandelt.
(§5) Als Test zur Erfassung der Immunstimulation wurde die Funktion der Makrophagen (Chemolumineszenz und Enzymaktivität) überprüft.
(§6) Tabelle 8 zeigt die relative Wirksamkeit der Prüfsubstanzen bezogen auf die Verbindung aus Beispiel 8, deren maximale Aktivierung (Differenz zwischen Kontrolle und Stimulation) 100 % entspricht. Der Tabelle ist zu entnehmen, daß im Vergleich zu Makrophagen aus unbehandelten Tieren, diese Zellen auch durch alle Prüfsubstanzen in ihrer Chemolumineszenzreaktion stark stimuliert und in ihrem Gehalt an lysosomalen Enzymen deutlich erhöht waren.

Test [2] has as its system Maus-Peritonealmakrophagen. Description: Activation of mononuclear phagocytes: oxidative metabolism (chemiluminescence) of peritoneal macrophages from treated mice. To be noted: relative to maximal activation by compound of Beispiel 8 = 100 %; 100 mg/kg i.p. On the procedure: as §1, §2, §3
Die parenterale sowie die orale Behandlung von NMRI-Mäusen mit der gemäß Beispiel 8 hergestellten Prüfsubstanz stimuliert die Makrophagenaktivität und hat damit eine immunitätstimulierende Wirkung. So wird der oxidative Stoffwechsel bei Makrophagen mit der Generierung von Sauerstoffradikalen und dem damit verbundenen meßbaren Licht deutlich erhöht. Bei Dosierungen von 25 mg/kg aufwärts kommt es zu einer dosisabhänigen Steigerung der Makrophagenaktivität sowohl bei parenteraler als auch oraler Applikation.
as §4, §5, §6

Test [3] has as its system zelluläre Immunantwort (DTH-Reaktion) gegen Schafserythrozyten. Description: Delayed type hypersensitivity (DTH) reaction against sheep erythrocytes, foot swelling in mice. To be noted: relative to maximal activation by compound of Beispiel 8 = 100 %, 1 x i.p. Tag 0.

On to `Oc1nc(SSc2nc(O)nn2-c2ccccc2)n(-c2ccccc2)n1` [Beispiel 1, Bis-(3-Hydroxy-1-phenyl-1,2,4-triazol-5-yl)-disulfid], for which the “Makrophagenaktivität Exozytose” value in test [1] was 48%. The “Makrophagenaktivität Chemolumineszenz” value in test [2] amounted to 30%.

As to `O=C(O)c1ccc2nc(SSc3nc4ccc(C(=O)O)cc4[nH]3)[nH]c2c1` [Beispiel 2, Bis-(5-Carboxy-benzimidazol-2-yl)-disulfid], the “DTH-Reaktion (SRBC)” value in test [3] (Dosis 20 mg/kg) is reported as 88%. Also, the “Makrophagenaktivität Exozytose” value in test [1] came out at 53%. In addition, the “Makrophagenaktivität Chemolumineszenz” value in test [2] is on record as 72%.

In the case of `C=C(Cl)Cn1c(SSc2nnc(O)c(=O)n2CC(=C)Cl)nnc(O)c1=O` [Beispiel 5], in test [3] (Dosis 200 mg/kg), the “DTH-Reaktion (SRBC)” value is 61%. Moreover, the “Makrophagenaktivität Exozytose” value in test [1] worked out at 45%. Further, the “Makrophagenaktivität Chemolumineszenz” value in test [2] turned out to be 37%.

In the case of `Cn1nc(O)c(=O)nc1SSc1nc(=O)c(O)nn1C` [Beispiel 6], the “DTH-Reaktion (SRBC)” value in test [3] (Dosis 100 mg/kg) was determined as 100%. In addition, the “Makrophagenaktivität Exozytose” value in test [1] came to 33%. Also, in test [2], the “Makrophagenaktivität Chemolumineszenz” value is listed as 26%.

For `O=C(O)Cc1csc(SSc2nc(CC(=O)O)cs2)n1` [Beispiel 10, Bis-(4-Carboxymethyl-1,3-thiazol-2-yl)-disulfid], the “DTH-Reaktion (SRBC)” value in test [3] (Dosis 10 mg/kg) was determined as 112%. For the same compound, the “Makrophagenaktivität Exozytose” value in test [1] turned out to be 21%. Besides, in test [2], the “Makrophagenaktivität Chemolumineszenz” value amounted to 66%.

With `O=C(O)c1cnc(SSc2ncc(C(=O)O)s2)s1` [Beispiel 12, Bis-(5-Carboxy-1,3-thiazol-2-yl)-disulfid], in test [3] (Dosis 100 mg/kg), the “DTH-Reaktion (SRBC)” value was 96%. Moreover, in test [1], the “Makrophagenaktivität Exozytose” value came out at 54%. Further, the “Makrophagenaktivität Chemolumineszenz” value in test [2] amounted to 39%.

For `Cc1nc(SSc2nc(C)c(C(=O)O)s2)sc1C(=O)O` [Beispiel 13], in test [3] (Dosis 200 mg/kg), the “DTH-Reaktion (SRBC)” value amounted to 147%. In addition, the “Makrophagenaktivität Exozytose” value in test [1] worked out at 77%. In addition, the “Makrophagenaktivität Chemolumineszenz” value in test [2] worked out at 81%.

With `Cc1sc(SSc2nc(CC(=O)O)c(C)s2)nc1CC(=O)O` [Beispiel 14, Bis-(4-Carboxymethyl-5-methyl-thiazol-2-yl)-disulfid], the “DTH-Reaktion (SRBC)” value in test [3] (Dosis 100 mg/kg) was found to be 118%. Further, in test [1], the “Makrophagenaktivität Exozytose” value is recorded as 93%. For the same compound, in test [2], the “Makrophagenaktivität Chemolumineszenz” value was found to be 97%.
